“And” between values parts separate entries of the source, which are not always exact repeats. Equal entries are not always repeated. No end group written: not given here.

Data on eight molecules can be found in patent publication EP3212211B1, “MILK PROTEIN HYDROLYSATE FOR USE IN THE TREATMENT OF DIARRHOEA” (Laboratorios Ordesa, S.l., priority 2014, dated 2016).

Series [1] concerns the target T1, recombinant human neprilysin (rhNeprilysin) (Homo sapiens, UniProt P08473).
T1 construct: purchased R&D Systems, Inc
Description: neprilysin inhibition, fluorogenic enzymatic (FRET) assay. Particulars: for IC50: pure substance, 37 °C. Format: biochemical. The protocol: All samples are assayed in triplicate.

Series [2] relates to rats. Description: intestine motility test (activated charcoal transit). Format: in vivo. Particulars: for intestinal transit in relation to RS group: product 30 minutes before charcoal, H1, H2 8.5 g/Kg, P+ (LW) 0.8 g/Kg, L 6.5 g/Kg, loperamide 2 mg/Kg p.o., read 20 minutes after charcoal. The protocol:
Intestine motility was evaluated in rats as in Example 7. The groups were coincident (n=7) except of the omission of R group and that only P^+ (LW 0.8 g/Kg) was tested. The control group included rats treated with loperamide (Lop) at a dose of 2 mg/Kg, and rats treated with the vehicle (water) and with non-hydrolysed cow milk (L group). Loperamide is an anti-diarrhoeic drug that delays intestinal transit and it acts as a positive control in this experiment.
After 30 minutes of the administration of the products under study (P+, L, Lop, H1, H2, water) intestine transit was determined by administering 1 ml of a suspension at 1 % w/v of activated charcoal (Sigma-Aldrich®) in arabic gum (Acofar®, 5 %).
20 minutes later, animals were sacrificed by exsanguination and small intestine was extracted (from pilor to ileocecal). Small intestine was longitudinally disposed over a clean surface. Intestinal distance of charcoal was measured as well as the total intestine length. Results for each animal were expressed as distance of charcoal in relation to intestine length, in percentage form.
Statistical analysis was performed by PASW®Statistics 18 software. Global comparative analysis between groups was performed with Kruskal-Wallis test and further with the non-parametric U test of Mann-Whitney. It was stablished as meaningful level a p value of p<0.05.

The conditions of series [3]: cited from earlier work.
In series [4] the test system is female Wistar rats. Description: castor oil induced acute diarrhoea in rats. It is filed as in vivo. To be noted: p.o. 1 h before castor oil, H1, H2 8.5 g/Kg. The protocol: The effect of the hydrolysates of the invention was tested in a model of induced acute diarrhoea. For this test, female Wistar rats were used (8 weeks old). Animals were provided with 7 weeks by Harlan (Barcelona, Spain) and they rested in the Animal Experimental Service of Facultad de […] de Barcelona (UB) under controlled temperature and humidity conditions with a light:dark cycle of 12 h:12 h with water and food ad libitum. The assay has been conducted under institutional guidelines for animal experimentation established by the Ethical Commitment of Animal Experimentation in the Universidad de Barcelona (CEEA-UB). […] Haematocrit was also determined as basal value before inducing diarrhoea. […] Although the weight was reduced during the assay, the loss was detected in all groups, and it is hypothesized due to the starving period. No differences among groups were detected in the haematocrit. […] The following variables were determined: number of defecations, type (consistency, colour, form, presence or absence of mucus), punctuation (0-4 according to a diarrhoea index), presence or absence of diarrhoea. There were also determined the diarrhoea index (ID), diarrhoea incidence, the percentage of diarrhoeic defecations, as well as the severity of diarrhoeic process. […] The percentage of diarrhoeic defecations (ID≥2) was also determined for each group. […]

The target of series [5] is Angiotensin Converting Enzymes (ACE). Particulars: ACE inhibition; cited from earlier work.
For series [6], the target named is recombinant human neprilysin (human, UniProt P08473 53-750). Description: cell-based or functional assay.
Sequence of recombinant human neprilysin (P08473 53-750 limits assumed): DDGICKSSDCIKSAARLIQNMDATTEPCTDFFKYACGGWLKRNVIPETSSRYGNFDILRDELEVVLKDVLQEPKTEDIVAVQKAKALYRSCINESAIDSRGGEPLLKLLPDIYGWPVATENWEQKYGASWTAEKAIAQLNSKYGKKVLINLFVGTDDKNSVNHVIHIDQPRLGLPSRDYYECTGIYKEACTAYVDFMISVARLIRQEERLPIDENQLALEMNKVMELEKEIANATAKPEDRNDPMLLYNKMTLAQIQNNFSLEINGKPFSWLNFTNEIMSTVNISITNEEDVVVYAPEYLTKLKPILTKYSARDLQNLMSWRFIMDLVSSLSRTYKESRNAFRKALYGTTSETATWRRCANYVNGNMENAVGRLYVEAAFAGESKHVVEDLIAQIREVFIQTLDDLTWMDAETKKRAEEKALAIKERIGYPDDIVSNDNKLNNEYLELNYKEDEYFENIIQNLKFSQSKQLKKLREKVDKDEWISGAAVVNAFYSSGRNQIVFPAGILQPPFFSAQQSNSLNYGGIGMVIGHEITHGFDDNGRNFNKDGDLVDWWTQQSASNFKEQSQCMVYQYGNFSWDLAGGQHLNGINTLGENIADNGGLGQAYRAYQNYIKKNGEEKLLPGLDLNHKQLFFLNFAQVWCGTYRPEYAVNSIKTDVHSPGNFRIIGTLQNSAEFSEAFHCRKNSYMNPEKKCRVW

T1 sequence (P08473 whole entry): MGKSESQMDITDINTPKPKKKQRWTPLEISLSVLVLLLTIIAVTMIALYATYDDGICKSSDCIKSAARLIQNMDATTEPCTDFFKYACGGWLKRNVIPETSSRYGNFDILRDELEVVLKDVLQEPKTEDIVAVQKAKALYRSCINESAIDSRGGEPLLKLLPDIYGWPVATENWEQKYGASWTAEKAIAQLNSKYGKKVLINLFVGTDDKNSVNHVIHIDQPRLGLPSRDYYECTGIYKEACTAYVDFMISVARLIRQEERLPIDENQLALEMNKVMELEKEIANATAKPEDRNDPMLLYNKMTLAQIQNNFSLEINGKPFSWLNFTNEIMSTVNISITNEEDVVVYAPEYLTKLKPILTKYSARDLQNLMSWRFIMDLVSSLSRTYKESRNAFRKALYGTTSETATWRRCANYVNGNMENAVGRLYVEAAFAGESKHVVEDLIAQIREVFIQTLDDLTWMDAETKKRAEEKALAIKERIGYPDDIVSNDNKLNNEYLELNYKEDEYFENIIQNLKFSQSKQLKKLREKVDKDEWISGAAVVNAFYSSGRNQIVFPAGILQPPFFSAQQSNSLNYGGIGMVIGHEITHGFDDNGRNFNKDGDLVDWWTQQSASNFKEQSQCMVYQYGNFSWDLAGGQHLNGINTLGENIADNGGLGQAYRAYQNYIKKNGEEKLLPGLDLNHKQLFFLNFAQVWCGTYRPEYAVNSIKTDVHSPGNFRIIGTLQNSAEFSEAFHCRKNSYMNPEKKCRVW

What is called IC50 is the concentration that gives 50% inhibition. Take `CC(C)C[C@H](N)C(=O)N[C@@H](Cc1c[nH]c2ccccc12)C(=O)O` [LW]: the IC50 in series [1] and in series [1] (dilutions in deionized water) was 84.8 µM in each case. Further, in series [2], the “intestinal transit in relation to RS group” value is “does not modify intestinal transit”.

Take `CC(=O)SCC(Cc1ccccc1)C(=O)NCC(=O)OCc1ccccc1` (centres unmarked) [racecadotril]: in series [3], the water solubility entry is on record as “poor water solubility”. Moreover, the “severity of diarrhoeic process (AUC of the diarrhoea index)” value in series [4] (LW 0.8 g/Kg, racecadotril 40 mg/Kg, L 6.5 g/Kg, 0-3 h and 0-8 h PI (FIG. 8), versus RD group) is recorded as “milder severity of diarrhoeic process than RD group”. Moreover, in series [4] (R 40 mg/Kg, 0-3 h and 0-8 h PI (FIG. 9)), the “percentage of diarrhoeic defecations (ID≥2) in relation to the total of defecations” value is “lower in both studied period”.

IPP: the IC50 in series [5] is 5 to 9 µM.

Turning to VPP, in series [5], the concentration for half-maximal inhibition (IC50) was 5 to 9 µM.

With `CN(C)C(=O)C(CCN1CCC(O)(c2ccc(Cl)cc2)CC1)(c1ccccc1)c1ccccc1` [loperamide], in series [2] (2 mg/Kg p.o., 30 minutes before charcoal, p<0.01 vs RS), the “intestinal transit: distance of charcoal in relation to total small intestine length (D/L)” value came to 37.8 ± 3.49%. Besides, the “inhibition of intestinal transit” value in series [2] (2 mg/Kg p.o., versus RS group, p<0.01) stood at 37%. For the same molecule, the “intestinal transit in relation to RS group” value in series [2] is recorded as “delayed intestinal transit”.

In general, inhibition refers to the relative decrease from the control value, in per cent. Regarding VLGPVRGPFP [SEQ ID NO: 1], the inhibition at 1260 µM in series [1] (peptide concentration 1.26 x10^-3 M, 40 minutes at 37 °C) worked out at 64.8%. In addition, the inhibition at 126 µM in series [1] (peptide concentration 1.26 x10^-4 M, 40 minutes at 37 °C) was 13.2%. Besides, the inhibition at 12.6 µM in series [1] (peptide concentration 1.26 x10^-5 M, 40 minutes at 37 °C) is 1.49%. In series [1] (peptide concentration 3.15 x10^-4 M, 40 minutes at 37 °C), the inhibition at 315 µM is 29.5%. Moreover, in series [1] (peptide concentration 6.30 x10^-4 M, 40 minutes at 37 °C), the inhibition at 630 µM amounted to 46.6%. The inhibition at 63 µM in series [1] (peptide concentration 6.30 x10^-5 M, 40 minutes at 37 °C) was 7.37%. Besides, the inhibition at 90 µM in series [1] (peptide concentration 9.00 x10^-5 M, 40 minutes at 37 °C) turned out to be 9.41%.

Turning to LW [peptide LW (dipeptide of formula (I) X1W, wherein X1 is leucine)], in series [6], the “IC50 of neprilysin inhibition (fluorogenic enzymatic assay, FRET substrate Mca-…[Dnp]-OH)” value is 0.0269 mg/ml and 84.8 µM.

VLGPVRGPFP [peptide of SEQ ID NO: 1 (VLGPVRGPFP)]: in series [6], the “IC50 of neprilysin inhibition (fluorogenic enzymatic assay)” value was 713 µM.
